The values that follow come from EP4631938A1, “NITROGEN-CONTAINING HETEROCYCLE WITH SEROTONIN RECEPTOR-BINDING ACTIVITY AND CARBOCYCLIC DERIVATIVE” (Shionogi & Co., Ltd, priority 2022, dated 2024).

What is called Ki is the dissociation constant of the complex between target and ligand, obtained from inhibition or displacement.

For assay [1], the target named is T1, human recombinant 5-HT2A receptor (Homo sapiens, UniProt P28223).
T1 construct: expressed in transfected cells; host or cells: Jump-In HEK cells (membrane preparation)
The assay is described as follows: Test Example 1-2: 5-HT2A receptor binding inhibition test ([3H]-Ketanserin; non-specific ligand Ketanserin). The note with it: [3H]-Ketanserin; non-specific binding with 500 µmol/L Ketanserin; room temperature (25°C), 1.5 hours; read-out: h 5-HT2A Ki. The essentials:
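Membranes expressing the receptor were incubated with [3H]-ketanserin and compound for 1.5 h at 25 °C, then filtered onto plates presoaked in 50 mmol/L Tris-HCl pH 7.4 and scintillation-counted. Non-specific binding was defined with 500 µmol/L unlabeled ketanserin. Ki was taken from dose-response curves, with Kd set for each membrane lot by Scatchard analysis.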

Assay [2] deals with T2, human recombinant 5-HT2C receptor (Homo sapiens, UniProt P28335).
T2 construct: expressed in transfected cells; host or cells: Jump-In HEK cells (membrane preparation)
T2 sequence (P28335 33-458): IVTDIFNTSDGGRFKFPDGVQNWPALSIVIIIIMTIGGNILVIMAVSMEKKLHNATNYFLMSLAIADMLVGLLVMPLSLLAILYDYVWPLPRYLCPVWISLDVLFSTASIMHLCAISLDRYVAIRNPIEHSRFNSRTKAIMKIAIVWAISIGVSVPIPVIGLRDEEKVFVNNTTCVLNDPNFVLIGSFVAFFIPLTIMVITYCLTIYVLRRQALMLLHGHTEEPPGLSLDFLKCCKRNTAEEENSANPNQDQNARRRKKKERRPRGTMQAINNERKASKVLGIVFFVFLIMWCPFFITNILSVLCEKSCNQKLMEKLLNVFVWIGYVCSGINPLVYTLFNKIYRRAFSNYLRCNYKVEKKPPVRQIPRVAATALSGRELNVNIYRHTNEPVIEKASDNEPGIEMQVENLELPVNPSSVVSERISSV
The assay is described as follows: Test Example 2: 5-HT2C receptor binding inhibition test ([3H]-Mesulergine; non-specific ligand Serotonin HCl). The note with it: human serotonin 5-HT2C receptor binding activity. The essentials: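 Filtration binding to membranes bearing human 5-HT2C with [3H]-mesulergine, 2 h at 37°C; non-specific binding defined with 500 µmol/L serotonin HCl, total binding with vehicle. Inhibition rate computed from cpm; Ki derived from dose-response curve, with ligand Kd from Scatchard analysis of saturation binding.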

T1 sequence (P28223 whole entry): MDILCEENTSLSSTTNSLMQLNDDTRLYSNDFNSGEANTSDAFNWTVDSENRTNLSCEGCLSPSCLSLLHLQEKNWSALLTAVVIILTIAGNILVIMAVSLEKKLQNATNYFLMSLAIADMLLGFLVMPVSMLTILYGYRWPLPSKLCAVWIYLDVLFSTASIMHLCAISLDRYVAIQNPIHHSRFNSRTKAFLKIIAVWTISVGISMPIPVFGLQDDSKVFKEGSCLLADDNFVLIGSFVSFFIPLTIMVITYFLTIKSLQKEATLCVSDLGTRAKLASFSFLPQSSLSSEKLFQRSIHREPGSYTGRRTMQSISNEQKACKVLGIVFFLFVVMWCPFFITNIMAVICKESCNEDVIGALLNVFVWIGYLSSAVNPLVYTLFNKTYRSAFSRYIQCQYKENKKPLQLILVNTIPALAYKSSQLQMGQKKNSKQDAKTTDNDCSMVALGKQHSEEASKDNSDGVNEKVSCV

Turning to `Cn1ncc(Br)c1-c1nc(Nc2ccc(OC(F)(F)F)cn2)c(F)cc1OCCO` [Compound I-280], the Ki in assay [1] is 0.312 nM; in assay [2] it was 1.58 nM.

`Cn1ncc(Br)c1-c1cc(Nc2ncc(OC(F)(F)F)cn2)cnc1OCCO` [Compound I-269]: the inhibition constant (Ki) in assay [1] came to 0.295 nM; in assay [2], 2.85 nM.

For the compound `COCc1nc(C)c(-c2cc(Nc3ncc(-c4ccc(C#N)c(F)c4)cc3Cl)ncc2OCCO)c(C)n1` [Compound I-265], the Ki in assay [1] is 0.972 nM; in assay [2] it was 0.47 nM.

Take `COCc1nc(C)c(-c2cc(Nc3ncc(-c4ccn(C(F)F)n4)cc3Cl)ncc2OCCO)c(C)n1` [Compound I-326]: the Ki came to 6.26 nM in assay [1] and 7.23 nM in assay [2].

In the case of `COCc1nc(C)c(-c2cc(Nc3ncc(OCCCC(F)(F)F)cc3Cl)ncc2OCCO)c(C)n1` [Compound I-238], the Ki in assay [1] is 5.12 nM; in assay [2] it was 2.64 nM.

On to `Cn1ncc(Cl)c1-c1cc(Nc2ncc(OCC(F)(F)F)cc2F)ncc1OCCO` [Compound I-322], for which the Ki in assay [1] amounted to 0.414 nM; in assay [2], 1.3 nM.

For the compound `Cc1cc(OC(F)F)cnc1Nc1cc(-c2c(Br)cnn2C)c(OCCO)cn1` [Compound I-177], the inhibitory constant (Ki) in assay [1] was determined as 0.331 nM; in assay [2] it was 0.63 nM.

Regarding `COCc1nc(C)c(-c2cc(Nc3ncc(-n4ccc(Cl)n4)cc3Cl)ncc2OCCO)c(C)n1` [Compound I-330], the Ki was 1.74 nM in assay [1] and 1.78 nM in assay [2].

As for `Cc1nc(C2CCCO2)nc(C)c1-c1cc(Nc2ncc(C(F)(F)F)cc2F)ncc1OCCO` (racemic) [Compound I-198], the Ki in assay [1] was 5.3 nM; in assay [2] it was 9.63 nM.

With `Cc1nc(C)c(-c2nc(Nc3ccc(-c4ccc(C(F)(F)F)nc4)cn3)c(F)cc2O[C@H](C)CO)c(C)n1` [Compound I-364], the Ki in assay [1] came to 3.34 nM; in assay [2], 12.2 nM.

On to `COCC(F)(F)COc1nc(C)c(-c2cc(Nc3ncc(C(F)(F)F)cc3Cl)ncc2OCCO)c(C)n1` [Compound I-218], for which the Ki in assay [1] was determined as 1.22 nM; in assay [2] it was 3.36 nM.

As for `COCc1nc(C)c(-c2cc(Nc3ncc(-c4ncc(C(F)(F)F)s4)cc3Cl)ncc2OCCO)c(C)n1` [Compound I-329], the values for the Ki in assay [1] and in assay [2] were 0.896 nM and 0.282 nM, respectively.

On to `Cn1ncc(Br)c1-c1nc(Nc2ccc(Cl)cc2F)ncc1OCCO` [Compound I-340], for which the Ki came out at 0.212 nM in assay [1] and 1.38 nM in assay [2].

Turning to `COC(=O)c1ccc(-c2cc(Nc3ncc(C(F)(F)F)cc3F)ncc2OCCO)c(C)c1` [Compound I-370], the inhibition constant Ki was 1.03 nM in assay [1] and 86.8 nM in assay [2].

With `Cn1ncc(Cl)c1-c1cc(Nc2ccc(Cl)cn2)c(F)cc1OCCO` [Compound I-163], the Ki turned out to be 0.216 nM in assay [1] and 1.26 nM in assay [2].

On to `Cc1nc(C)c(-c2cc(Nc3cc(OC(F)F)c(Cl)cn3)ncc2OCCO)c(C)n1` [Compound I-302], for which the Ki worked out at 1.08 nM in assay [1] and 6.21 nM in assay [2].

With `Cc1nc(C)c(-c2cc(Nc3ccc(-c4ccc(F)cc4)cn3)ncc2OCCO)c(C)n1` [Compound I-309], the values for the Ki in assay [1] and in assay [2] were 0.247 nM and 1.37 nM, respectively.

On to `Cc1nc(CO[C@H]2CCOC2)nc(C)c1-c1cc(Nc2ncc(C(F)(F)F)cc2Cl)ncc1OCCO` [Compound I-377], for which the inhibitory constant (Ki) in assay [1] came to 2.9 nM; in assay [2] it was 4.66 nM.

For `CNC(=O)c1cnc(C)c(-c2cc(Nc3ncc(C(F)(F)F)cc3F)ncc2OCCO)c1` [Compound I-371], the inhibitory constant (Ki) was 2.37 nM in assay [1] and 61.5 nM in assay [2].

With `Cc1nc(OC2CC2)nc(C)c1-c1cc(Nc2ncc(C(F)(F)F)cc2Cl)ncc1OCCO` [Compound I-212], the Ki in assay [1] was 1.22 nM; in assay [2] it was 3.89 nM.

For `COCc1nc(C)c(-c2cc(Nc3ncc(-c4ccc(F)c(F)c4)cc3Cl)ncc2OCCO)c(C)n1` [Compound I-254], the Ki is 0.496 nM in assay [1] and 0.278 nM in assay [2].

Take `COCc1nc(C)c(-c2cc(Nc3ccc(-c4ccc(F)cc4)cn3)ncc2OCCO)c(C)n1` [Compound I-272]: the Ki was 0.343 nM in assay [1] and 1.4 nM in assay [2].
